Among the data in PubChem BioAssay AID1552 (Sanford-Burnham Center for Chemical Genomics, 2009) are Kd values, retold here.

As usually defined, the Kd is the concentration at which binding is half-saturated.

For this assay, the target named is Ubiquitin-conjugating enzyme E2 N (Homo sapiens) (UniProt P61088). As to the kind of experiment: UBE2N binders by NMR, biophysical, purified protein (AID 1552). The following applies: NMR binding to purified UBE2N.

Activity calls are given as the source filed them. The rule behind the calls is not given here.

Chain of Ubiquitin-conjugating enzyme E2 N (Homo sapiens) (P61088 whole entry, looked up): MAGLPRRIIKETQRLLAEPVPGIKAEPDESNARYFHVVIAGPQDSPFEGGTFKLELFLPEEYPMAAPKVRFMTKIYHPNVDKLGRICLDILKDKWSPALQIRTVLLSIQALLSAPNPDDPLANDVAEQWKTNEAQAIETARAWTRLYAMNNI

With `O=c1c(O)c(-c2ccccc2)oc2ccccc12`, the Kd is > 4 mM (inactive).
As to `Cc1[nH]c2ccccc2c(=O)c1CO`, the Kd is > 4 mM (inactive).
Turning to `COc1ccc(-c2cc(=O)c3c(OC)c(OC)c(OC)c(OC)c3o2)cc1`, the Kd is > 4 mM (inactive).
As to `CSc1nc(-c2ccccc2)ccc1C(N)=O`, the Kd was > 4 mM (inactive).
On to `COc1nc(-c2ccccc2)ccc1-c1noc(C)n1`, for which the Kd was > 4 mM (inactive).
Consider `Nc1ccc(-n2cncn2)cc1`, for which the Kd was > 4 mM (inactive).
For `COc1ccc(CN2CCNC(=O)C2CC(=O)O)cc1C` (centres undefined) the value was > 4 mM (inactive); for `CCOC(=O)C1CCN(c2ccc(C#N)cc2)CC1`, > 4 mM (inactive); for `Cn1c(O)c(/C=C2\C=CC=N2)c(=O)[nH]c1=S`, > 4 mM (inactive).
Next, `Cc1nc(N)sc1C(=O)N/N=C/c1ccncc1`: > 4 mM (inactive); `COc1cccc(/C=C/C(=O)O)c1C(C)C`: > 4 mM (inactive).
Turning to `Nc1ccc(NC(=O)c2ccco2)c(Cl)c1`, the Kd was > 4 mM (inactive).
Next, `COc1cc2c(cc1O)CC1c3c(cc(O)c(OC)c3-2)CCN1C` (centres undefined): > 4 mM (inactive); `CC1SC(=NC(=O)c2ccncc2)NC1=O` (centres undefined): > 4 mM (inactive).
On to `NC(=O)c1ccsc1NC(=O)C1=COCCO1`, for which the Kd is > 4 mM (inactive).
Next, `O=C(Nn1cnnc1)c1cc2c(s1)CCCC2`: > 4 mM (inactive).
For `CC(C)=CC1C(C(=O)O)C1(C)C` (centres undefined) the value was > 4 mM (inactive); for `O=C(Cc1cccs1)Nc1ccccn1`, > 4 mM (inactive).
On to `COc1ccc(C2(C)CC(=O)NC2=O)cc1` (centres undefined), for which the Kd is > 4 mM (inactive).
In the case of `NC(=O)CSc1ccc(Br)cc1`, the Kd is > 4 mM (inactive).
Next, `CC(=O)Nc1cc(S(=O)(=O)N(C)C)ccc1Cl`: > 4 mM (inactive); `Cc1nnsc1-c1onc(C)c1C(=O)O`: > 4 mM (inactive); `CS(=O)(=O)c1cccc(C(=O)Nc2nccs2)c1`: > 4 mM (inactive).
Next, `CC1CC2(NC(=O)NC2=O)C(C)CN1C` (centres undefined): > 4 mM (inactive); `NC(=O)C1CCN(c2ncnc(N)c2[N+](=O)[O-])CC1`: > 4 mM (inactive).
For `CN1CCC(NC(=O)c2c(F)cccc2Cl)CC1`, the Kd is > 4 mM (inactive).
Take `OCc1nc2ccccc2s1`: the Kd is > 4 mM (inactive).
For `NS(=O)(=O)c1ccc2c3c(cccc13)C(=O)N2` the value was > 4 mM (inactive); for `Cc1cc2ncc(C(=O)Nc3ccccc3)c(C)n2n1`, > 4 mM (inactive); for `CC(=O)OC(C)(C)[C@@H]1Cc2cc3ccc(=O)oc3cc2O1`, > 4 mM (inactive).
Consider `OCc1ccccc1O[C@@H]1O[C@H](CO)[C@@H](O)[C@H](O)[C@H]1O`, for which the Kd is > 4 mM (inactive).
Take `COc1ccc2c(c1)OC[C@@H](Cc1ccc(OC)c(OC)c1)[C@@H]2O`: the Kd is > 4 mM (inactive).
As for `O=C(Nc1ccon1)c1csc2ccccc12`, the Kd is > 4 mM (inactive).
Consider `NC(=O)C1CCN(C2CC(=O)NC2=O)CC1` (centres undefined), for which the Kd is > 4 mM (inactive).
Next, `Cc1nnsc1C(=O)N(C)c1ccccc1`: > 4 mM (inactive); `O=C(NCC1CCCCC1)c1ccco1`: > 4 mM (inactive).
Regarding `O=C(O)c1ccc(-c2cccs2)s1`, the Kd was > 4 mM (inactive).
On to `NC(=O)Cc1nc(-c2ccccc2)cs1`, for which the Kd was > 4 mM (inactive).
`N[C@@H](Cc1cc(I)c(Oc2cc(I)c(O)c(I)c2)c(I)c1)C(=O)O`: the Kd was > 4 mM (inactive).
On to `Cc1ccccc1OCC(=O)O`, for which the Kd is > 4 mM (inactive).
In the case of `Nc1nnc(COc2cccc(C(F)(F)F)c2)s1`, the Kd was > 4 mM (inactive).
Take `Cc1nn(C)c2sc(C(=O)O)cc12`: the Kd was > 4 mM (inactive).
Next, `CNC(=S)N1CCN=C1Nc1nc(C)cc(C)n1`: > 4 mM (inactive); `O=C1CCCCCN1CO`: > 4 mM (inactive).
In the case of `Nc1cc(=O)[nH]c(=O)n1Cc1ccco1`, the Kd is > 4 mM (inactive).
Next, `NC(=O)Cn1nc(-c2ccco2)ccc1=O`: > 4 mM (inactive); `O=C(CCc1ccc(O)cc1)c1c(O)cc(O)cc1O[C@@H]1O[C@H](CO)[C@@H](O)[C@H](O)[C@H]1O`: > 4 mM (inactive).
As for `COc1ccc(O)c(-c2cn[nH]c2-c2cccs2)c1`, the Kd is > 4 mM (inactive).
Turning to `CNC(=S)Nc1ccc2c(c1)OCO2`, the Kd was > 4 mM (inactive).
For `CN1CCOc2cc(C(=O)O)ccc21` the value was > 4 mM (inactive); for `CC(=O)O[C@H]1C[C@@H](OC(C)=O)C(C)(C)C2CC(=O)[C@]3(C)C(CC[C@@]4(C)[C@H](C(=O)O)OC(=O)C5OC543)[C@]21C` (some centres undefined), > 4 mM (inactive); for `C=C[C@@]1(C)CC(=O)[C@@]2(O)[C@](C)(O1)[C@@H](OC(C)=O)[C@@H](O)C1C(C)(C)CC[C@H](O)[C@@]12C` (some centres undefined), > 4 mM (inactive).
On to `O=C(O)c1cc(F)cc2c1OCOC2`, for which the Kd is > 4 mM (inactive).
Next, `Cc1cc(C)n(S(=O)(=O)c2ccc(C)c(C)c2C)n1`: > 4 mM (inactive); `O=c1[nH]oc2ccccc12`: > 4 mM (inactive); `NC(=O)c1ccc(SCC(=O)O)c([N+](=O)[O-])c1`: > 4 mM (inactive).
Next, `COc1cc(C(C)=O)cc(OC)c1O`: > 4 mM (inactive); `N#Cc1cc2ccccc2nc1N`: > 4 mM (inactive); `Nc1ccccc1C(=O)N1CCNC(=O)C1`: > 4 mM (inactive).
With `Cc1ccc(C(=O)Nc2ccncc2)o1`, the Kd was > 4 mM (inactive).
For `CC[C@@]1(O)C(=O)OCc2c1cc1n(c2=O)Cc2cc3ccccc3nc2-1` the value was > 4 mM (inactive).
Take `COC(=O)[C@@]1(C)CCC[C@]2(C)c3ccc(O)c(C(C)C)c3CCC12` (some centres undefined): the Kd is > 4 mM (inactive).
Next, `O=c1c(O)c(-c2ccccc2)oc2cc(O)ccc12`: > 4 mM (inactive); `Nc1ncnc(NC2CCS(=O)(=O)C2)c1[N+](=O)[O-]` (centres undefined): > 4 mM (inactive).
For `NCC(=O)c1ccccc1` the value was > 4 mM (inactive); for `Cn1ncc(SCc2ccco2)c(Cl)c1=O`, > 4 mM (inactive); for `CNCc1ccccc1`, > 4 mM (inactive).
For the compound `COC(=O)CCC(C)C1CCC2C3CCC4C[C@H](O)CC[C@]4(C)C3C[C@H](O)[C@]12C` (some centres undefined), the Kd was > 4 mM (inactive).
Consider `Cn1nnc2c(Cl)ncnc21`, for which the Kd is > 4 mM (inactive).
For `Cc1cc(C)n(-c2nc(N)cc(=O)[nH]2)n1` the value was > 4 mM (inactive); for `O=C(Nc1ccon1)c1csc2c1CCCC2`, > 4 mM (inactive); for `O=C1CSC(=Nc2ccc(C(=O)O)cc2)N1`, > 4 mM (inactive).
Next, `NC(=O)COc1ccccc1O`: > 4 mM (inactive).
On to `Cc1onc(-c2ccccc2)c1CO`, for which the Kd is > 4 mM (inactive).
For `Cc1nn(CC(=O)Nc2ccccn2)c(=O)c2ccccc12` the value was > 4 mM (inactive); for `CC(=O)Nc1cc(C(F)(F)F)ccc1N1CCOCC1`, > 4 mM (inactive).
`C[C@@H]1CC[C@@]23CCC4(C)[C@@](C=CC5[C@@]6(C)CC[C@H](O)C(C)(C)C6CC[C@]54C)(OC2=O)C3[C@H]1C` (some centres undefined): the Kd is > 4 mM (inactive).
Next, `O=C1C2C3C=CC(O3)C2C(=O)N1c1ccccc1` (centres undefined): > 4 mM (inactive); `COC(=O)c1scc(C)c1N`: > 4 mM (inactive).
With `CC(O)c1nc2ccccc2[nH]1` (centres undefined), the Kd was > 4 mM (inactive).
Next, `CCOC(=O)c1ccc(F)c(F)c1`: > 4 mM (inactive); `COc1ccc(NC(=O)C2CC(=O)N=C(N)S2)cc1` (centres undefined): > 4 mM (inactive); `O=c1[nH]c2ccccc2c(=O)n1CCCO`: > 4 mM (inactive).
Consider `O=C(CSc1ncn[nH]1)c1ccc2c(c1)OCCO2`, for which the Kd is > 4 mM (inactive).
For `c1ccc2[nH]c(SCc3cscn3)nc2c1` the value was > 4 mM (inactive).
`O=C(O)CC12CC3CC(CC(O)(C3)C1)C2`: the Kd is > 4 mM (inactive).
With `CN1C(=O)c2ccc(C(=O)NC3CCCCC3)cc2C1=O`, the Kd is > 4 mM (inactive).
`COc1c2c(cc3cc[n+](C)cc13)OCO2`: the Kd was > 4 mM (inactive).
Take `O=C1c2ccccc2C(=O)c2c(O)c(O)cc(O)c21`: the Kd was > 4 mM (inactive).
With `CC(CC(=O)O)n1cccn1` (centres undefined), the Kd was > 4 mM (inactive).
Turning to `CC(=O)Nc1nnc(-c2ccccc2S(C)(=O)=O)o1`, the Kd is > 4 mM (inactive).
Next, `O=c1[nH]c(O)c(C=NC2CC2)c(=O)[nH]1`: > 4 mM (inactive).
In the case of `O=C(O)c1ccc2c(c1)OCCO2`, the Kd is > 4 mM (inactive).
For `NC(=O)c1cccc2c1OCCO2`, the Kd was > 4 mM (inactive).
Take `CC(=O)Nc1nc(C)c(C(C)=O)s1`: the Kd was > 4 mM (inactive).
`CCOC(=O)c1cc(C)n(-n2cnnc2)c1C`: the Kd was > 4 mM (inactive).
As for `Cc1cccc(NC(=O)NC(N)=O)c1`, the Kd is > 4 mM (inactive).
Next, `Oc1cc(O)cc(/C=C/c2ccccc2)c1`: > 4 mM (inactive); `Cc1occc1C(=O)NCc1ccncc1`: > 4 mM (inactive).
Next, `COC(=O)C1CCN(c2ccc(Cl)nn2)CC1`: > 4 mM (inactive); `CC(=O)O[C@H]1C[C@@]2(C)[C@@H](C[C@@H](O)C3[C@]2(C)CC[C@H]2[C@H](C)[C@H](O)CC[C@]32C)/C1=C(/CCC=C(C)C)C(=O)O` (some centres undefined): > 4 mM (inactive).
Take `CCC(=O)Nc1ccccc1NC(C)=O`: the Kd was > 4 mM (inactive).
Next, `CCN1CCN(CCCNc2ncnc3nc[nH]c23)CC1`: > 4 mM (inactive); `CNC(=O)Nc1ccc(C(=O)NC)cc1`: > 4 mM (inactive).
